From patent US20240141294A1, “CGMP COMPLIANT PRODUCTION AND EXPANSION OF PLASMACYTOID DENDRITIC CELLS FROM HEMATOPOIETIC STEM AND PROGENITOR CELLS” (AARHUS UNIVERSITET, priority 2021, published 2024)

Tested on: HSPC-pDCs
Assay: Phenotypic analysis of pDC surface markers by flow cytometry
Format: cell-based, human
Conditions: pDCs isolated from AA-supplemented culture at day 16
Procedure: Flow cytometry was used to immunophenotype pDCs. Briefly, cells were spun down and resuspended in 100 μL PBS. Cells were stained with Ghost Dye Red 780 Viability Dye (13-0865, Tonbo) for 30 min before being washed with FACS buffer (PBS with 2% FCS and 1 mM EDTA). Cells were subsequently resuspended in 50 μL FACS buffer and stained with the following antibodies: FITC anti-human Lineage Cocktail (CD3 (UCHT1), CD14 (HCD14), CD16 (3G8), CD19 (HIB19), CD20 (2H7) and CD56 (HCD56), 348801, BioLegend), APC anti-human CD11c (3.9, 20-0116-T100, TonboBio), PE anti-human CD123 (6H6, 12-1239-42, eBioscience), PE-Cy7 anti-human CD303 (201a, 25-9818-42, eBioscience). Cells were stained for 30 min before being washed three times in FACS buffer. To validate the expression CD34+ on HSPCs, cells were stained with PE-Cy7 anti-human CD34 (581, 343516, BioLegend) for 30 min, washed three times in FACS buffer before being resuspended in FACS buffer. PI was added to the cells as a viability dye in a concentration of 1:100 (13-6990 Tonbo Bioscience). Fluorescence intensities were measured using the Quanteon flow cytometer equipped with 4 lasers (405 nm, 488 nm, 561 nm, and 637 nm) and 29 photomultipliers (PMT) detectors or the NovoCyte flow cytometer with two lasers (488 nm and 561 nm) and 12 PMT detectors (ACEA Biosciences, Inc.). Data analysis was done using FlowJo (Version 10, Tree Star, Ashland, OR, USA). […]

O=C1O[C@H]([C@@H](O)CO)C(O)=C1O [ascorbic acid]
surface expression levels of CD303: lower expression levels
